Assay results: US20040152766A1, “Composition comprising demethylcantharidin in combination with platinum-containing anticancer agents and use thereof” (priority 2003, published 2004)
Values joined by “and” are separate entries in the source; they are usually repeats but may differ in a detail not shown here. Equal values may be shown once. Read-outs that look alike come from different tables or passages of the source.

Columns and labels:
[1] = system: SK-Hep-1 human liver cancer; assay: In vitro antitumor-drug screening, MTT assay, SK-Hep-1; assay type: cell-based
Experimental: (§1) Test complexes 1-5, DMC, hydrolyzed DMC, cantharidin, together with controls cisplatin and carboplatin, were screened for in vitro antitumor activity against a series of human cancer cell lines and mouse leukaemia L1210, using a tetrazolium microculture assay.
(§2) Drugs: Drugs to be tested were dissolved in complete medium at twice the highest concentration to be used, followed by filter (0.22 μm) sterilization. A series of log dilutions were made of each drug solution using complete medium. All drug solutions were prepared within 10 minutes before adding to the cells.
(§3) Cells: MDA-MB-231 (human breast), SK-OV-3 (human ovarian), SK-Hep-1 (human liver), COLO320DM (human colon), L1210 (mouse leukaemia), NCI:H460 (human lung) and NTERA-Scl-D1 (human testicular) were obtained from the American Type Culture Collection (ATCC).
(§4) The cultures were incubated for an additional 72 hours.
(§5) Data analysis: The mean OD for all 12 control wells was determined. For each concentration of each drug, the mean OD of the 4 wells was determined. All mean OD was subtracted from the blank to account for the background. The “Percent of Control” values were determined and plotted. The concentration of drug resulting in 50% growth inhibition (IC50) was determined using the software Prism 3.0 by fitting the graph into sigmoidal dose-response curve.

L1210 mouse leukaemia = assay: In vitro antitumor-drug screening, tetrazolium (MTT) microculture assay, L1210; assay type: cell-based
Experimental: as §1, §2, §3, §4, §5

[2] = system: SK-OV-3 human ovarian cancer; assay: In vitro antitumor-drug screening, MTT assay, SK-OV-3; assay type: cell-based
Experimental: as §1, §2, §3, §4, §5

[3] = system: MDA-MB-231 human breast cancer; assay: In vitro antitumor-drug screening, MTT assay, MDA-MB-231; assay type: cell-based
Experimental: as §1, §2, §3, §4, §5

[4] = system: COLO320DM human colon cancer; assay: In vitro antitumor-drug screening, MTT assay, COLO320DM; assay type: cell-based
Experimental: as §1, §2, §3, §4, §5

[5] = system: NCI: H460 human lung cancer; assay: In vitro antitumor-drug screening, MTT assay, NCI:H460; assay type: cell-based; conditions: n = 12-16 from 3-4 independent experiments, read-out: Growth-inhibitory activity IC50 ± sd
Experimental: as §1, §2, §3, §4, §5

[6] = system: Sensitive parental L1210 mouse leukaemia; assay: cells; assay type: cell-based; conditions: 72-hr exposure, fa = 50%
Experimental: (§6) In vitro drug exposure: Trypsinized cells were adjusted to a concentration of 2×10^5 cells/ml in complete medium and for each drug to be tested, 0.1 ml of the cell suspension was added to each of the 24 wells of a 96-well microtitre plate. The plate was then incubated at standard conditions for 24 hours in order to allow the cells to attach to the bottom of the well and resume exponential growth. To each well of the control cultures and drug/concentration combination, 0.1 ml of complete medium and drug solution respectively was added. Each drug/concentration combination consisted of 4 replicates while control cultures consisted of 12 replicates. 12 replicates of blank consisting of 0.2 ml complete medium were set aside to account for the background. The cultures were incubated for an additional 72 hours. All experiments were repeated at least 3 times on different occasions.
(§7) MTT assay: The MTT (tetrazolium) assay was used to determine the growth-inhibitory effects of different drugs. A 5 mg/ml solution of MTT (3-(4,5-dimethylthiazol-2-yl)-2,5-diphenyltetrazolium bromide) was prepared in phosphate buffer saline (pH 7.4), filter (0.22 μm) sterilized and stored at −20° C. To each well, 0.02 ml of the MTT solution was added and the plates were incubated at standard conditions for 4 hours. The media from each well was then removed and 0.1 ml of DMSO (dimethylsulfoxide) was added to each well to solubilize the colored dye produced from the metabolic reduction of MTT. The amount of reduced MTT was determined by spectrophotometric means (570 nm).
(§8) Platinum compounds were evaluated alone and in combination with demethylcantharidin (DMC) for their cytotoxic effects. The cytotoxicity for the compounds was determined by the MTT assay as described above. The median-effect principle and combination-index isobologram method of Chou and Talalay was used to determine the dose-effect parameters for cisplatin, DMC, or their mixtures at different combination ratios. Each drug or mixture was 3-fold serially diluted to generate a dose-effect relationship in the cytotoxic assays.
(§9) Combinations of cisplatin and DMC were evaluated for synergism, additive effect or antagonism using the median-effect plot and combination-index isobologram method of Chou and Talalay references 1-4.
This method involves plotting dose-effect curves for each agent and their combinations in multiply-diluted concentrations by using the median-effect equation [3,6] […]
CI<1, CI=1, and CI>1 indicate synergism, additivity, and antagonism, respectively. As based on the classic isobologram equation, CI can be calculated by equation: […]
Both the mutually non-exclusive and exclusive drug interaction as defined by Chou and Chou (reference 7) were evaluated. […]

[7] = system: NTERA-S cl D1 human testicular cancer; assay: In vitro antitumor-drug screening, MTT assay, NTERA-S cl D1; assay type: cell-based; conditions: n = 12-16 from 3-4 independent experiments, read-out: Growth-inhibitory activity IC50 ± sd
Experimental: as §1, §2, §3, §4, §5

[8] = system: Cisplatin-resistant L1210 mouse leukaemia; conditions: for fold-resistant (cross-resistance): Dm in CDDP-resistant L1210 versus sensitive L1210
Experimental: as §6, §7, §8, §9
This method involves plotting dose-effect curves for each agent and their combinations in multiply-diluted concentrations by using the median-effect equation [3,6]
where fa is the fraction of cells affected (ie, fraction of cells killed), fu the fraction unaffected (i.e. fraction of cells surviving; fa=1−fu), D the dose of drug and Dm the dose causing the median effect
The parameters m, Dm, and r are the slope, antilog of x-intercept, and the linear correlation coefficient of the median-effect plot, which signifies the shape of the dose-effect curve, the potency (IC50), and conformity of the data to the mass-action law, in references 3, 5 and 6, respectively. Dm and m values are used for calculating the combination index (CI) values.
CI<1, CI=1, and CI>1 indicate synergism, additivity, and antagonism, respectively. As based on the classic isobologram equation, CI can be calculated by equation:
CI=[(D)1/(Dx)1]+[(D)2/(Dx)2]+[α(D)1(D)2]/[(Dx)1(Dx)2),
Both the mutually non-exclusive and exclusive drug interaction as defined by Chou and Chou (reference 7) were evaluated.
To preclude a false-positive result, classical isobologram curve tracing was used to confirm the synergistic effect at a reasonable fractional cytotoxic effect (fa=50%).

[9] = Homo sapiens, SK-HEP1, SK-Hep-1, Table 1, read-out: In vitro antitumor activity IC50
[10] = Mus musculus, L1210, Table 1, read-out: In vitro antitumor activity IC50
[11] = Homo sapiens, SK-OV-3, Table 1, read-out: In vitro antitumor activity IC50
[12] = Homo sapiens, MDA-MB-231, Table 1, read-out: In vitro antitumor activity IC50
[13] = Homo sapiens, COLO 320DM, COLO320DM, Table 1, read-out: In vitro antitumor activity IC50
[14] = SK-Hep-1 human liver cancer, n = 12-16 from 3-4 independent experiments, read-out: Growth-inhibitory activity IC50 ± sd
[15] = sensitive parental L1210, read-out: Dm (i.e. IC50), antilog of x-intercept of the median-effect plot
[16] = L1210 mouse leukaemia, n = 12-16 from 3-4 independent experiments, read-out: Growth-inhibitory activity IC50 ± sd
[17] = SK-OV-3 human ovarian cancer, n = 12-16 from 3-4 independent experiments, read-out: Growth-inhibitory activity IC50 ± sd
[18] = MDA-MB-231 human breast cancer, n = 12-16 from 3-4 independent experiments, read-out: Growth-inhibitory activity IC50 ± sd
[19] = COLO320-DM human colon cancer, n = 12-16 from 3-4 independent experiments, read-out: Growth-inhibitory activity IC50 ± sd

SMILES | IC50 [1, 14] [µM] | IC50 [5] [µM] | IC50 (L1210 mouse leukaemia; [16]) [µM] | IC50 [2, 17] [µM] | IC50 [3, 18] [µM] | IC50 [7] [µM] | IC50 [4, 19] [µM] | fold-resistant (cross-resistance) [8] | also measured
C[C@@]12C(=O)OC(=O)[C@]1(C)[C@H]1CC[C@@H]2O1 [Cantharidin] | – | – | – | – | – | – | – | – | IC50 [1, 9]: 3.34 µM; IC50 (L1210 mouse leukaemia; [10]): 38.9 µM; IC50 [2, 11]: 4.98 µM; IC50 [3, 12]: 10.6 µM; IC50 [4, 13]: 35.6 µM
N.N.O=C([O-])C1(C(=O)[O-])CCC1.[Pt+2] [Carboplatin, reference compound] | 501 ± 86.6 | 60.3 ± 16.4 | 10.1 ± 3.71 | 149 ± 34.1 | 1080 ± 157 | 2.75 ± 1.13 | 188 ± 35.8 | 14.5 fold | IC50 [6, 15]: 10.6 µM; IC50 [8]: 154 µM; fold-resistant (cross-resistance) ([8]; listed as carboplatin): ~15 fold
N.N.[Cl][Pt][Cl] [Cisplatin, reference compound] | 54.1 ± 9.81 | 11.3 ± 4.93 | 0.51 ± 0.11 | 15.2 ± 11.8 | 65.7 ± 4.39 | 0.19 ± 0.1 | 11.9 ± 1.5 | 40.8 fold | IC50 [6, 15]: 0.603 µM; IC50 [8]: 24.6 µM; DRI for cisplatin, resistant versus sensitive parental cell line ([8]; Cisplatin:DMC 1:1.67 (resistant) versus 1:1.49 (sensitive)): about 5.5 fold; fold-resistant (cross-resistance) ([8]; listed as cisplatin): 40 fold
[NH2][Pt]1([NH2])[O]C(=O)C2C3CCC(O3)C2C(=O)[O]1 (stereo not drawn) [Complex 1] | 20.6 ± 5.89 | 21.1 ± 10.7 | 2.71 ± 0.4 | 40.8 ± 14.3 | 63.8 ± 8.28 | 0.36 ± 0.25 | 37.2 ± 7.14 | 8 fold and 8.2 fold | IC50 [6, 15]: 5.15 µM; IC50 [8]: 42.4 µM; fold-resistant (cross-resistance) ([8]; listed as complex 1): different degree of cross-resistant
CC(C)[NH][Pt]1([NH]C(C)C)[O]C(=O)C2C3CCC(O3)C2C(=O)[O]1 (stereo not drawn) [Complex 2] | 17.2 ± 8.07 | 26.5 ± 8.09 | 12.1 ± 2.35 | 77.7 ± 19.8 | 94.5 ± 9.61 | 1.44 ± 0.41 | 84.7 ± 9.68 | – | –
C[NH][Pt]1([NH]C)[O]C(=O)C2C3CCC(O3)C2C(=O)[O]1 (stereo not drawn) [Complex 3] | 15.4 ± 6.04 | 3.44 ± 1.98 | 6.19 ± 2.67 | 37.2 ± 13.4 | 49.4 ± 9.42 | 0.84 ± 0.2 | 48.9 ± 10.5 | – | –
CC[NH][Pt]1([NH]CC)[O]C(=O)C2C3CCC(O3)C2C(=O)[O]1 (stereo not drawn) [Complex 4] | 20 ± 5.52 | 3.91 ± 2.65 | 5.92 ± 1.94 | 62.6 ± 33.5 | 62.5 ± 13.3 | 0.6 ± 0.24 | 48.5 ± 9.95 | – | –
O=C1[O][Pt]2([NH]C3CCCCC3[NH]2)[O]C(=O)C2C3CCC(O3)C12 (stereo not drawn) [Complex 5] | – | – | – | – | – | – | – | negligible cross-resistance | –
O=C1OC(=O)C2C3CCC(O3)C12 (stereo not drawn) [DMC, Demethylcantharidin] | – | – | – | – | – | – | – | 1.1 fold | IC50 [1, 9]: 11.5 µM; IC50 ([6]; Mus musculus, L1210, 72 h, read-out: Dm (i.e. IC50), antilog of x-intercept of the median-effect plot, sensitive parental L1210): 11.2 µM; IC50 (L1210 mouse leukaemia; [10]): 13.9 µM; IC50 [2, 11]: 53.8 µM; IC50 [3, 12]: 31.8 µM; IC50 [4, 13]: 19.3 µM; fold-resistant (cross-resistance) ([8]; listed as demethylcantharidin (DMC)): negligible cross-resistance
O=C(O)C1C2CCC(O2)C1C(=O)O (stereo not drawn) [Hydrolyzed DMC] | – | – | – | – | – | – | – | – | IC50 ([1]; SK-Hep-1, Table 1, read-out: In vitro antitumor activity IC50): 7.2 µM; IC50 (L1210 mouse leukaemia; L1210, Table 1, read-out: In vitro antitumor activity IC50): 8.33 µM; IC50 ([2]; SK-OV-3, Table 1, read-out: In vitro antitumor activity IC50): 46.6 µM; IC50 ([3]; MDA-MB-231, Table 1, read-out: In vitro antitumor activity IC50): 41.7 µM; IC50 ([4]; COLO320DM, Table 1, read-out: In vitro antitumor activity IC50): 46.5 µM
O=C1[O][Pt]2([NH][C@@H]3CCCC[C@H]3[NH]2)[O]C1=O [Oxaliplatin] | – | – | – | – | – | – | – | different degree of cross-resistant | –
